# Results as given in the supplement of paper PMC10307832.
# How the values were obtained:
# Experiment in all cases: relative viability (nuclei count vs DMSO), 5 days (fraction); higher = more cells survive
# Crizotinib + Phenformin = compound: C[C@@H](Oc1cc(-c2cnn(C3CCNCC3)c2)cnc1N)c1c(Cl)ccc(F)c1Cl [Crizotinib] + N=C(N)NC(=N)NCCc1ccccc1 [Phenformin] (partner 250 µM)
# Outline: (§1)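 Lung cancer cell lines were seeded in 1536-well plates and dosed by pin tool the next day, with either a single drug or a fixed anchor-drug dose combined with five library-drug doses (not always all listed) spaced in √10 steps. Five days later, one step fixed the cells and stained their nuclei (final 0.05% Triton X-100, 1% formaldehyde, 1 ug/ml Hoechst), and nuclei were counted on 4× images. Relative viability is the nuclei count in treated wells divided by the count in vehicle wells, and each value is the median of duplicate plates.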
# Carfilzomib + Olaparib = compound: CC(C)C[C@H](NC(=O)[C@H](CCc1ccccc1)NC(=O)CN1CCOCC1)C(=O)N[C@@H](Cc1ccccc1)C(=O)N[C@@H](CC(C)C)C(=O)[C@@]1(C)CO1 [Carfilzomib] + O=C(c1cc(Cc2n[nH]c(=O)c3ccccc23)ccc1F)N1CCN(C(=O)C2CC2)CC1 [Olaparib] (partner 8 µM)
# Outline: as §1
# Olaparib + OSI-027 = compound: O=C(c1cc(Cc2n[nH]c(=O)c3ccccc23)ccc1F)N1CCN(C(=O)C2CC2)CC1 [Olaparib] + COc1cccc2cc(-c3nc([C@H]4CC[C@H](C(=O)O)CC4)n4ncnc(N)c34)[nH]c12 [OSI-027] (partner 0.5 µM)
# Outline: as §1
# Carfilzomib + Pemetrexed = compound: CC(C)C[C@H](NC(=O)[C@H](CCc1ccccc1)NC(=O)CN1CCOCC1)C(=O)N[C@@H](Cc1ccccc1)C(=O)N[C@@H](CC(C)C)C(=O)[C@@]1(C)CO1 [Carfilzomib] + Nc1nc2[nH]cc(CCc3ccc(C(=O)N[C@@H](CCC(=O)O)C(=O)O)cc3)c2c(=O)[nH]1 [Pemetrexed] (partner 0.2 µM)
# Outline: as §1
Cell Line,relative viability (Crizotinib + Phenformin; first compound 0.01 µM),relative viability (Crizotinib + Phenformin; first compound 0.03162 µM),relative viability (Crizotinib + Phenformin; first compound 0.1 µM),relative viability (Crizotinib + Phenformin; first compound 0.3162 µM),relative viability (Crizotinib + Phenformin; first compound 1 µM),relative viability (Carfilzomib + Olaparib; first compound 0.001 µM),relative viability (Carfilzomib + Olaparib; first compound 0.003162 µM),relative viability (Carfilzomib + Olaparib; first compound 0.01 µM),relative viability (Carfilzomib + Olaparib; first compound 0.03162 µM),relative viability (Carfilzomib + Olaparib; first compound 0.1 µM),relative viability (Olaparib + OSI-027; first compound 0.08 µM),relative viability (Olaparib + OSI-027; first compound 0.253 µM),relative viability (Olaparib + OSI-027; first compound 2.53 µM),relative viability (Olaparib + OSI-027; first compound 8 µM),relative viability (Carfilzomib + Pemetrexed; first compound 0.001 µM),relative viability (Carfilzomib + Pemetrexed; first compound 0.003162 µM),relative viability (Carfilzomib + Pemetrexed; first compound 0.01 µM),relative viability (Carfilzomib + Pemetrexed; first compound 0.03162 µM),relative viability (Carfilzomib + Pemetrexed; first compound 0.1 µM)
NCI-H661,0.257,0.269,0.285,0.266,0.264,0.731,0.806,0.725,0.684,0.312,0.7,0.61,0.708,0.621,0.925,0.948,0.902,0.903,0.415
NCI-H838,0.553,0.604,0.556,0.516,0.526,0.79,0.799,0.785,0.126,0.109,0.417,0.367,0.38,0.405,0.268,0.254,0.246,0.209,0.136
NCI-H1355,0.431,0.497,0.522,0.382,0.442,0.732,0.777,0.754,0.62,0.118,0.517,0.399,0.441,0.412,1.01,1.03,1.08,1,0.282
NCI-H1395,0.435,0.464,0.493,0.427,0.382,–,0.516,0.428,0.356,0.303,0.743,0.58,0.524,0.536,–,0.873,0.756,0.33,0.287
NCI-H1437,0.278,0.306,0.3,0.272,0.345,0.629,0.666,0.645,0.419,0.171,0.967,0.871,0.855,0.771,0.282,0.352,0.334,0.273,0.286
NCI-H1650,0.411,0.401,0.387,0.377,0.389,0.811,0.855,0.723,0.111,0.137,0.842,0.515,0.72,0.816,0.343,0.403,0.312,0.154,0.166
NCI-H1651,0.294,0.356,0.292,0.287,0.336,0.184,0.188,0.167,0.101,0.0957,0.756,0.615,0.545,0.445,0.561,0.649,0.536,0.197,0.082
NCI-H1666,0.514,0.598,0.583,0.558,0.546,0.757,0.782,0.75,0.709,0.528,0.845,0.791,0.717,0.758,0.896,0.914,0.898,0.799,0.562
